Assay results published in US8421457B2, “Methods and systems for magnetically resonating both a subject and a substance administered to the subject” (Applied Magnetics, LLC, priority 2008, dated 2013).

Experiments:
[1] = tested on: diabetic peripheral neuropathy patients; test: Case report: diabetic neuropathy drugs combined with MR treatment; format: in vivo, human; conditions: diabetic neuropathy in both feet, taking the drugs; resonated four times for one hour each
Excerpt: In one subject, a person suffered with diabetic neuropathy in both feet. […] The subject was taking the drugs Actos, Metaformin, and Lisinopril. The subject was resonated four times for one hour each time. […] As of fifteen months after the last treatment session, the sensation remained. Also, the subjects from Example 5 reported improvements with respect to symptoms relating to diabetic neuropathy (e.g., lack of sensation and pain).
In providing MR treatment to a subject with diabetic neuropathy, an amplitude of about 0.455 μG to about 0.53 μG, with a frequency of about 12.7 Hz to about 14.84 Hz may be used.

osteoarthritis patients = conditions: for results of continuing treatment / stiffness in hand, before treatment / pain in thumb, before treatment: person, taking the drugs; for results of continuing treatment: back pain (degenerative disk disease, sciatica), resonated approx. three times per week for more than one year; for stiffness in hand, before treatment / pain in thumb, before treatment: osteoarthritis, before MR; for stiffness in hand, before treatment: scale zero (feels great) to ten (feels terrible)
Excerpt: In one example, a person suffered from back pain due to degenerative disk disease in their low back and sciatica. […] The subject was resonated approximately three times per week for more than one year.
In another example, a person experienced arthritis pain in a number of joints, including their hips, hands, and shoulders. The subject also suffered from sciatica in their hips and legs. The subject was taking Celebrex. The subject was resonated at least three times per week for one to two hours per session.
In a further example, a person experienced osteoarthritis pain and stiffness in their hands and finger joints. […] The subject was resonated twice for one-half hour per treatment. The subject was asked to rate their pain on a scale of zero (feels great) to ten (feels terrible) before and after treatment.
Alternatively, an amplitude of about 0.01 μG to about 0.46 μG, with a frequency of about 0.2799 Hz to about 12.8765 Hz may be used.

[2] = tested on: migraine and headache patients; test: Case reports: migraine and headache drugs combined with MR treatment; format: in vivo, human
Experimental: The subject was resonated ten times for 1 to 1.5 hours per treatment over a one-month period.
In another example, a person experienced pain associated with migraines. […] The subject received two one-hour treatments three months apart.
In a further example, a person experienced pain associated with severe headaches. The subject took Aspirin to treat the pain. The subject received one treatment for one hour.

injured patients = test: Case reports: injuries, drugs combined with MR treatment; format: in vivo, human; conditions: person, taking the drugs; for elimination of pain and stiffness: injured right knee (old Meniscus tear), 3 MR treatments of 1 hour over 5 days
Excerpt: In another example, a person experienced pain and stiffness associated with a shoulder injury. The subject was taking Aspirin and Ibuprofin. The subject received two one-hour treatments three days apart. The result was a decrease in pain level of 50% and a decrease in stiffness of 50%.
In a further example, a person experienced pain and stiffness associated with an injured knee. The subject was taking Aspirin and Ibuprofin. Over the course of 5 days, the subject received 3 treatments, each lasting 1.5 hours. The result was a decrease in pain level of 50-100% and a decrease in stiffness of 50%.
In a further example, a person experienced pain and stiffness associated with an injured right knee that was the result of an old Meniscus tear injury. The subject was taking Aspirin and Ibuprofin. Over the course of 5 days, the subject received 3 treatments, each lasting 1 hour. The result was a 100% elimination of their pain an stiffness.
In another example, a person experienced pain and stiffness associated with an injured left knee. The subject was taking Aspirin and Ibuprofin. Over the course of three days, the subject received two treatments, each lasting one hour. The result was a decrease in pain level of 75% and a decrease in stiffness of 50%.
In providing MR treatment to a subject with pain and/or one or more injuries, an amplitude of about 0.01 μG to about 0.5 μG, with a frequency of about 0.2799 Hz to about 14.0 Hz may be used.

subject with back pain = test: Case reports: low back pain, drugs combined with MR treatment; format: in vivo, human; conditions: person, taking the drugs; for decrease in pain level and stiffness level: four one-hour MR treatments over eleven days; for decrease in stiffness level: one MR treatment of one hour
Excerpt: In one example, a person experienced pain and stiffness associated with their low back. The subject was taking Aspirin and Ibuprofen. Over the course of ten days, the subject received three treatments. The result was a decrease in pain level of 50-100%.
In another example, a person experienced pain and stiffness associated with their low back. The subject was taking Aspirin and Ibuprofen. Over the course of eleven days, the subject received four treatments, each lasting one hour. The result was a decrease in pain level and stiffness level of 75%.
In another example, a person experienced pain and stiffness associated with their low back. The subject was taking Aspirin and Ibuprofen. The subject received one treatment, lasting one hour. The result was a decrease in pain level of 60-70% and stiffness level of 90%.
In providing MR treatment to a subject with back pain, an amplitude of about 0.01 μG to about 0.457 μG, with a frequency of about 0.2799 Hz to about 12.8 Hz may be used.

[3] = tested on: patients with high cholesterol; test: Case report: cholesterol drug combined with MR treatment; format: in vivo, human; conditions: person taking Lipitor; three MR treatments per week for twenty months
Experimental: In one example, a person was taking the drug Lipitor to manage their cholesterol levels. The subject began a series of three treatments per week for twenty months, and continuing on an ongoing basis. […] In order to provide MR treatment for cholesterol, the MR device settings may range from an amplitude from about 0.4998 μG to about 0.075 μG and a frequency from about 2.1 Hz to about 13.9996 Hz, or ranges within these ranges.

fibromyalgia patients = test: Case reports: fibromyalgia, drugs combined with MR treatment; format: in vivo, human; conditions: same subject; thirteen MR treatments within a two-month period
Experimental: In one example, a person experienced fibromyalgia for a number of years. The subject also experienced insomnia, restless legs, and chronic fatigue. The subject took the drug Naproxen (Aleve). The subject received seven consecutive days of 1 to 1.5 hour treatments.
Their primary complaint was back pain. […] The subject received thirteen treatments within a two-month period. […] Approximately two months after completing their first series of treatment, they began a second regimen of ten treatments within a two-month period.
In a further example, a person at least fifty years old suffered from fibromyalgia for a number of years. […] The subject received daily (when possible) treatments for approximately one year.

cancer patients = conditions: in vivo
Experimental: In one example, carboplaton and taxol are cancer drugs for treating cancer, including ovarian cancer.
For this protocol, the MR device settings may be, for example, amplitude=about 0.017 μG to about 0.3 μG, frequency=about 0.3 Hz to about 9.6 Hz, waveform=sine or square, and MR treatment duration=about 80 minutes.

[4] = same subject, after being resonated twice for one-half hour per treatment, scale zero to ten
[5] = injured knee, 3 MR treatments of 1.5 hours over 5 days
[6] = injured left knee, two one-hour MR treatments over three days
[7] = shoulder injury, two one-hour MR treatments three days apart

With CCc1ccc(CCOc2ccc(CC3SC(=O)NC3=O)cc2)nc1 (stereo not drawn) [Actos] the “result of treatment on sensation in feet” value [1] was “sensation returned for touch, texture, and temperature”.
In the case of CC(=O)Oc1ccccc1C(=O)O [Aspirin], the “results of continuing treatment” value (osteoarthritis patients) is reported as “significantly less pain, an improved range of motion, and improved sleep”, the “stiffness in hand, before treatment” value (osteoarthritis patients) is reported as “two” and the “pain in thumb, before treatment” value (osteoarthritis patients; scale zero to ten) is reported as “three”. The “pain in thumb, after treatment” value (osteoarthritis patients; [4]) was “zero”, the “stiffness in hand, after treatment” value (osteoarthritis patients; [4]) was “zero” and the pain before treatment ([2]; person, severe headaches, taking Aspirin, before MR) was 6.5. The pain after treatment ([2]; same subject, after one MR treatment for one hour) was “zero”, the decrease in stiffness (injured patients; [5]) was 50% and the “decrease in pain level” value (injured patients; [6]) was 75%. For the same molecule, the decrease in stiffness (injured patients; [6]) was 50%, the “elimination of pain and stiffness” value (injured patients) was 100% and the “decrease in pain level” value (injured patients; [7]) was 50%. The decrease in stiffness (injured patients; [7]) was 50%, the “decrease in pain level and stiffness level” value (subject with back pain) was 75% and the “decrease in stiffness level” value (subject with back pain) was 90%.
For CC(C)Cc1ccc(C(C)C(=O)O)cc1 (stereo not drawn) [Ibuprofin], the “results of continuing treatment” value (osteoarthritis patients) was “significantly less pain, an improved range of motion, and improved sleep”, the “stiffness in hand, before treatment” value (osteoarthritis patients) was “two” and the “pain in thumb, before treatment” value (osteoarthritis patients; scale zero to ten) was “three”. For the same molecule, the results on migraines ([2]; person with migraines taking the drugs, resonated ten times, 1 to 1.5 hours, over one month) was “decreased frequency and duration of migraines”, the “pain level before being resonated” value ([2]; person with migraines taking the drugs, scale of zero to ten) was “nine” and the “reduction in pain level” value ([2]; person with migraines taking the drugs, two one-hour MR treatments three months apart) was 50%. The “pain level after treatment” value ([2]; same subject, after ten MR treatments over one month, scale of zero to ten) was “two”, the decrease in stiffness (injured patients; [5]) was 50% and the “decrease in pain level” value (injured patients; [6]) was 75%. The decrease in stiffness (injured patients; [6]) was 50%, the “elimination of pain and stiffness” value (injured patients) was 100% and the “decrease in pain level” value (injured patients; [7]) was 50%. For the same molecule, the decrease in stiffness (injured patients; [7]) was 50%, the “decrease in pain level and stiffness level” value (subject with back pain) was 75% and the “decrease in stiffness level” value (subject with back pain) was 90%.
CC(C)c1c(C(=O)Nc2ccccc2)c(-c2ccccc2)c(-c2ccc(F)cc2)n1CC[C@@H](O)C[C@@H](O)CC(=O)O [Lipitor] was tested, and the cholesterol levels [3] was “at the best ratio in twenty years”.
NCCCC[C@H](N[C@@H](CCc1ccccc1)C(=O)O)C(=O)N1CCC[C@H]1C(=O)O [Lisinopril] was tested, and the “result of treatment on sensation in feet” value [1] was “sensation returned for touch, texture, and temperature” and the “pain level after treatment, first series” value (fibromyalgia patients) was 0.5.
With CN(C)C(=N)NC(=N)N [Metaformin] the “result of treatment on sensation in feet” value [1] was “sensation returned for touch, texture, and temperature”.
For N.N.O=C([O-])C1(C(=O)[O-])CCC1.[Pt+2] [carboplaton], the “reported effects after taking the cancer drugs” value (cancer patients) was “increased lethargy and decreased energy and motivation”.
